Results as given in ChEMBL document CHEMBL1201862, “PubChem BioAssay data set” (2004).
Activity calls are given as the source filed them. Rule as the data show it: actives have a measured IC50 and inactives only a lower limit.

Target: T1, Alkaline phosphatase, tissue-nonspecific isozyme (Homo sapiens, UniProt P05186)
T1 sequence (P05186 whole entry): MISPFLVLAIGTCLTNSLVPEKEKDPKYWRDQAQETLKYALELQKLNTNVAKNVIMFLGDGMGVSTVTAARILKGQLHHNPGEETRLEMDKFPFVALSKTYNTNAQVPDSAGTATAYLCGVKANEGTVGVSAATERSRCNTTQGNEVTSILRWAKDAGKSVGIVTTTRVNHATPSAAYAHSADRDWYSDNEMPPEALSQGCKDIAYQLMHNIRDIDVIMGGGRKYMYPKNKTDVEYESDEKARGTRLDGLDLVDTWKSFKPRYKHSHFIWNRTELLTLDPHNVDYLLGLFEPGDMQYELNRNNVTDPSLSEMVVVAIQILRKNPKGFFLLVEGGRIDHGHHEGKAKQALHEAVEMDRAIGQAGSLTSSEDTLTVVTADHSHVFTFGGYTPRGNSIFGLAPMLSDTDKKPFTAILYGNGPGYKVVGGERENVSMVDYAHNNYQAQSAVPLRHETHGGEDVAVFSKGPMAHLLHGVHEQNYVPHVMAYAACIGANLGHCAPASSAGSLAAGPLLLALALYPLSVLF
Assay: TNAP enzyme inhibition by screening hits, dose response, selectivity assay for mouse IAP inhibitor project, biochemical, human TNAP, uHTS hits (AID 488906)
Assay type: functional

For O=c1ccc2c(-c3ccccc3S(=O)(=O)O)c3ccc(O)c(O)c3oc-2c1O [PYROGALLOL RED], the IC50 was 24.1 µM (active).
